Measurements taken from patent US6610248B1, “Disinfectants” (Lonza AG, priority 1999, dated 2003).

Experiments:
[1] = test system: Pseudomonas aeruginosa ATCC 15442; experiment: Quantitative suspension test EN 1276; format: cell-based; settings: contact time 5 min, water hardness 300 mg/kg CaCO3, 20° C.
Method: (§1) As specified by standard EN 1276, the efficacy of N,N-bis (3-aminopropyl)octylamine (according to the invention) and N,N-bis (3-aminopropyl)dodecylamine (comparison) was determined in the presence of albumin for various test microorganisms. [table]

[2] = test system: Staphylococcus aureus ATCC 6538; experiment: Quantitative suspension test EN 1276; format: cell-based; settings: contact time 5 min, water hardness 300 mg/kg CaCO3, 20° C.
Method: as §1

[3] = test system: Escherichia coli ATCC 10536; experiment: Quantitative suspension test EN 1276; format: cell-based; settings: contact time 5 min, water hardness 300 mg/kg CaCO3, 20° C.
Method: as §1

[4] = test system: Enterococcus hirae ATCC 8043; experiment: Quantitative suspension test EN 1276; format: cell-based; settings: contact time 5 min, water hardness 300 mg/kg CaCO3, 20° C.
Method: as §1

[5] = Determination of foaming (shaken mixing cylinder, foam volume read off); format: physicochemical; settings: 250 ppm in demineralized water, 20° C.
Method: A 250 ml mixing cylinder was filled with 100 ml of solution. After any foam formed in the course of this had disappeared, the sealed cylinder was shaken vigorously vertically for 15 s (approximately 15×) and then placed on a flat support. The volume of the resultant foam was read off at regular time intervals.

[6] = test system: Mycobacterium terrae ATCC 15755; experiment: Quantitative suspension test using Mycobacterium terrae (Hygiene & Medizin 1997 method); format: cell-based; settings: 0.3% active compound, 20° C., contact time 15 min
Method: Using the method described in Hygiene & Medizin 1997, 22, pp. 278-283, the activity of N,N-bis(3-amino-propyl)octylamine against Mycobacterium terrae ATCC 15755 was determined under differing organic loads. The concentration of active compound was in each case 0.3%, the temperature 20° C. and the contact time 15 min. The common logarithmic reduction in bacterial count was determined each time.

Row | Structure (SMILES) | concentration for log. reduction >5 ([1]; 0.03% albumin) [%] | concentration for log. reduction >5 ([1]; 0.3% albumin) [%] | concentration for log. reduction >5 ([2]; 0.03% albumin) [%] | concentration for log. reduction >5 ([2]; 0.3% albumin) [%] | concentration for log. reduction >5 ([3]; 0.03% albumin) [%] | concentration for log. reduction >5 ([3]; 0.3% albumin) [%] | concentration for log. reduction >5 ([4]; 0.03% albumin) [%] | concentration for log. reduction >5 ([4]; 0.3% albumin) [%] | foam volume after 10 s [5] [mL] | foam volume after 60 s [5] | Log reduction in bacterial count ([6]; load: 0.3% albumin) | Log reduction in bacterial count ([6]; load: 0.5% sheep's blood) | Log reduction in bacterial count ([6]; load: none) | foam volume after a further 10 s ([5]; relative to volume at 10 s)
1 | CCCCCCCCCCCCN(CCCN)CCCN [N,N-bis(3-aminopropyl)dodecylamine, reference compound] | 0.025 | 0.50 | 0.05 | 0.10 | 0.025 | 0.025 | 0.05 | 0.05 | 140 | 120 mL | – | – | – | –
2 | CCCCCCCCN(CCCN)CCCN [N,N-bis(3-aminopropyl)octylamine] | 0.05 | 0.10 | 0.10 | 0.10 | 0.05 | 0.05 | 0.10 | 0.05 | 20 | virtually completely disappeared | 4.09 | 4.48 | 4.33 | decreased to half
